Measurements from paper PMC3328629 (2012).

How the values were obtained:
[1] = biological target: T1, S-adenosyl-L-homocysteine hydrolase (HsSAHH) (Homo sapiens, UniProt P23526)
T1 sequence (P23526 2-432): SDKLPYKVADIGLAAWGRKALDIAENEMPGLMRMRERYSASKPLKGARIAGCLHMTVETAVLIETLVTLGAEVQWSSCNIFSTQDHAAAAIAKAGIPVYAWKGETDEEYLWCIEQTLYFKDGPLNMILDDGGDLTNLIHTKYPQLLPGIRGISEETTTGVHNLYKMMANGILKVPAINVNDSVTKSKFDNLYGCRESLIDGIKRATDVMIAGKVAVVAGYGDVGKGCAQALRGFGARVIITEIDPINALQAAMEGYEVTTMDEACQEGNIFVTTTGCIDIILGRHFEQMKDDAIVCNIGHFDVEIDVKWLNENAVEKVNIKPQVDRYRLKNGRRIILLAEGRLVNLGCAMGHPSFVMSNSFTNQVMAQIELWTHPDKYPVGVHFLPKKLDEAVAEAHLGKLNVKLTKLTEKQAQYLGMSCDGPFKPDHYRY

[2] = biological target: T1, S-adenosyl-L-homocysteine hydrolase (HsSAHH); experiment: luciferase-coupled adenosine assay; format: biochemical
[3] = biological target: T1, S-adenosyl-L-homocysteine hydrolase (HsSAHH); experiment: Michaelis-Menten kinetics; format: biochemical
[4] = biological target: T1, S-adenosyl-L-homocysteine hydrolase (HsSAHH); experiment: biochemical

In the case of `Nc1ncnc2c1ncn2[C@@H]1C=C(CO)[C@@H](O)[C@H]1O` [INH, neplanocin A], the “HPLC analysis of adenosine formation without coupling enzymes” value [1] is reported as “Under these conditions (cf. Supplementary Methods, Supporting Information), INH totally inhibits SAHH”.
With `NC[C@H]1O[C@@H](n2cnc3c(N)ncnc32)[C@H](O)[C@@H]1O` [INH-1, 5′-deoxy-5′-amino-β-D-adenosine] the Ki [2] was 2170 ± 80 nM.
`Nc1ncnc2c1ncn2[C@@H]1O[C@H](CSCC[C@H](N)C(=O)O)[C@@H](O)[C@H]1O` [SAH, S-adenosyl-L-homocysteine] gave a Km [3] of 22 ± 2 µM.
`Nc1ncnc2c1ncn2C[C@@H](O)[C@@H](O)C(=O)O` [D-eritadenine] showed a Ki [4] of 11.3 ± 0.6 nM.
